Here are results for one compound from publication PMC6627486, “Ipomoeassin F Binds Sec61α to Inhibit Protein Translocation” (Journal of the American Chemical Society, 2019).

The test system of one test is HCT-116 cells. Put plainly: Metabolic labelling of nascent proteins in HCT116 cells. The test is classed as cell-based, human. The method, then:
Metabolic Labelling Assays in HCT116 Cells
HCT116 cells were counted using an automated cell counter (BioRad TC20) immediately prior to each experiment. 3 ml of HCT116 cells at a density of 0.166x10^6 cells/mL were seeded to 6-well plates (0.5x10^6 cells/well) and then incubated at 37 °C and 5% CO 2 for 24 h. The compounds were dissolved in DMSO to make drug stocks (10 mM). The stock solutions were diluted with DMEM high glucose culture medium lacking methionine and cysteine to make a fresh working solution immediately prior to each test. Cells were washed twice and 1ml of fresh DMEM lacking methionine and cysteine was added to each well.
Subsequently, the cells were treated with 250 µl of compound solutions in a total volume of 1 ,250 µl/well.
The plate was then incubated at 37 °C and 5% CO 2 for 30 min before 100 µCi 35S-labelled methionine/cysteine was added (Expre35s35s protein labelling mix). Plates were incubated for a further 30 min, then media collected and cells harvested by scraping after four washes in ice-cold PBS. Total protein was acquired by RIPA extraction from the cell pellet, cytoplasmic fraction was acquired by partial permeabilization of the outer cell membranes with 0.15% Digitonin followed by centrifugation, secreted proteins were acquired by TCA precipitation of the media. […]

For another test, the system named is HCT116. As to the kind of experiment: cells. The test is classed as cell-based. Conditions: Homo sapiens, HCT-116; HCT116, 72 h, Alamar Blue, assayed separately; read-out: Cytotoxicity (IC50). As for the experimental part: AlamarBlue Cytotoxicity Assay
MDA-MB-231, MCF-10A and HCT116. Viable cells were counted with a hemocytometer immediately before each experiment . Experiments were done in triplicate. First, 100 μL of MDA-MB-231 cells or MCF-10A cells at the density of 50,000 cells/mL was seeded in a 96-well plate (5,000 cells/well) and then incubated at 37 °C and 5% CO2 for 24 h. The compounds were dissolved in DMSO (dimethyl sulfoxide) to make drug stocks (10 mM). The stock solutions were diluted with the complete DMEM high glucose culture medium to make a series of gradient fresh working solutions right before each test. Subsequently, the cells were treated with 100 μL of the freshly made gradient working solution in a total volume of 200 μL/well for 72 h. After that, the media were discarded and 200 μL of the fresh complete medium containing 10% of AlamarBlue (resazurin) stock solution was added to each well. The plate was then incubated at 37 °C and 5% CO2 for another 3 h. Emission of each well at 620 nm was detected by a microplate reader (BioTek Synergy H1) at excitation 580 nm. For HCT116 WT and mutant lines, cells were seeded at 1000 cells/ well in complete McCoys medium. Compounds were diluted from a DMSO stock into culture medium as described above. Cells were treated for 96 h, then viability measured with AlamarBlue, detected using the conditions described but with a BMG Fluostar Optima Microplate Reader. The percentage of viability compared to the negative control (DMSO-treated cells) was determined. […]
HCT116 and HEK293T. Viable cells were counted using an automated cell counter (BioRad TC20) before each experiment. […] Emission of each well at 620 nm was detected by a microplate reader (Perkin Elmer EnSpire) at excitation 580 nm. The percentage of viability compared to the negative control (DMSO -treated cells) was determined. […]
Figure S1. […] (C) HCT116 colon carcinoma cells were treated with increasing concentrations of analogues 8, 14, 15, CT8, ipomoeassin F or carrier (0.1% DMSO) and cell viability was assessed at 72 h by the Alamar Blue assay (mean ± S.D., n = 4). […]

With `C/C=C(\C)C(=O)O[C@@H]1[C@@H](O)[C@@H]2O[C@H]3[C@H](O[C@@H](CCCCC)CCCCCCC(=O)CCC(=O)OC[C@@H](O2)[C@H]1OC(=O)/C=C/c1ccccc1)O[C@H](C)[C@H](OC(C)=O)[C@@H]3O` [ipomoeassin F], the “inhibition of production of secreted proteins” value with HCT-116 cells (HCT-116, 100 nM, 35S labelling) was “strong inhibition”. Further, the “nascent protein biogenesis in total cellular lysates and cytosolic fractions” value with HCT-116 cells (HCT-116, 35S labelling) was “lack of inhibition”. Also, the IC50 with HCT116 amounted to 8 nM.
